Laboratory results taken from US20250210128A1, “COMPUTER-IMPLEMENTED DESIGN OF PEPTIDE:RECEPTOR SIGNALING COMPLEXES FOR ENHANCED CHEMOTAXIS” (Ecole Polytechnique Federale de Lausanne (EPFL), priority 2022, published 2025).

System: primary human T cells
Test: Boyden chamber migration assay of T cells transduced with CXCR4 variants
Format: cell-based
Conditions: 100 nM wild-type CXCL12 full-length chemokine
Method: T cells transduced and selected for CXCR4 variant expression from 3-6 donors were stained with 1 uM Vybrant DiO cell-labeling solution (Thermo, ref. V22886) in serum-free RPMI 1640+GlutaMax. 40,000 cells in 75 uL were seeded in each well of 96-well Boyden chambers with 5.0 μm pores (Corning, ref. 3388)^42. Reservoirs were filled with 200 uL serum-free RPMI 1640+GlutaMax or supplemented with 100 nM chemokine. The bottom of the attractant reservoir was imaged for migrated cells over the course of 8 hours with a Cytation 5 BioSpa (Biotek) at 37° C. with 5% CO2. Fluorescent spots were counted over time and compared to the no-chemokine control to calculate the migration index (#migrated cells towards attractant/#migrated cells towards no-attractant). The peak migration index was averaged between 3 technical replicates for each transduced donor per attractant concentration were plotted.

WT CXCR4: wild-type human CXCR4 (SEQ ID NO: 1; with N-terminal 3xHA-tag SEQ ID NO: 2)
migration (fold-migration over no-chemoattractant control): around 1.5 fold
